The results in this text go back to patent US12551500B2, “C6′-substituted locked nucleic acid-modified cap analog and use thereof” (Hangzhou Tianlong Pharmaceutical Co., Ltd., priority 2024, dated 2026).

Structures are written as SMILES.

Series [1] concerns the target T1, T7 RNA polymerase (Escherichia phage T7, UniProt P00573). Description: In vitro transcription yield of mRNA with cap analog (co-transcriptional capping). Format: biochemical. Also noted: in vitro transcription yield of mRNA: unit not given here. The conditions noted are these: for Yield per unit template: in vitro transcription, 1 μg DNA template, 20 μL system, 37° C. 2 hours. The method, then: (1) Capping synthesis using cap analogs
The plasmid was first linearized with plasmid linearizing enzyme, and then the linearized plasmid was purified.
(2) In vitro transcription and synthesis of mRNA
(§1) YK-CAP-001 to 006 and compound 14 in Table 1 were respectively used as cap analogs.
(§2) During the experiment, the volume of materials required for the system was first calculated, and then sample addition was conducted. The system was first added with sterile enzyme-free water, followed by the sequential addition of 10× buffer, NTPs, and cap analogs, mixed well, and gently centrifuged. Nuclease inhibitors, inorganic pyrophosphatase, T7 RNA polymerase, and linearized DNA templates were then added thereto. The system was mixed well, gently centrifuged, and incubated at 37° C. After 2 hours of incubation, the system was added with 1 U of DNase I and incubated at 37° C. for another 30 minutes. The mRNA precipitate was then washed with 75% ethanol, and after the ethanol was briefly evaporated to dryness, the mRNA was redissolved in sterile enzyme-free water.
(3) The transcription product was purified, and the in vitro transcription yield of mRNA was recorded.

Series [2] has as its target T1, T7 RNA polymerase. Nature of the series: Capping rate of in vitro transcribed mRNA by LC-MS. It counts as biochemical. To be noted: mRNA transcribed with the cap analog, LC-MS. The method, then:
as §1, §2
(4) The obtained mRNA was subjected to an annealing reaction with a probe.
The annealing reaction was performed in a PCR instrument: 95° C. for 5 minutes; 65° C. for 2 minutes; 55° C. for 2 minutes; 40° C. for 2 minutes; 22° C. for 2 minutes.
(5) Magnetic bead pretreatment and probe binding: 100 μL of magnetic beads was placed on a magnetic frame for pretreatment. The magnetic bead solution was added with 120 μL of sample and incubated at room temperature for 30 minutes with slow mixing.
(6) mRNA splicing and obtaining the 5′ single-strand sequence bound to the probe
The mixture was added with 20 μL of RNase H (5 U/μL) and incubated at 37° C. for 3 hours with mixing every half hour. After incubation, the magnetic beads were washed and then added with 100 μL of 75% methanol heated to 80° C. The mixture was heated to 80° C. on a heating plate, held for 3 minutes, then placed on a magnetic frame to aspirate the supernatant, and dried at room temperature for 45 minutes to a volume of 10 μL using a centrifugal evaporator. The sample was then resuspended in 50 μL of 100 μM EDTA/1% MeOH and ready for LC-MS analysis to determine the capping of RNA in the transcription reaction. Since there is a significant difference in molecular weight between capped and uncapped bases, the capping rate of mRNA transcription initiated by different cap analogs can be determined based on the difference in molecular mass.

Series [3] is described as follows: Characterization of lipid nanoparticles encapsulating Fluc-mRNA. Format: physicochemical. The conditions noted are these: for Particle size: LNP (YK-009/DSPC/cholesterol/DMG-PEG2000) encapsulating Fluc-mRNA transcribed using the cap analog; for PDI: LNP encapsulating Fluc-mRNA transcribed using the cap analog; for EE: encapsulation efficiency of LNP encapsulating Fluc-mRNA transcribed using the cap analog. On the procedure:
Cationic lipid YK-009 (Beijing Youcare Kechuang Pharmaceutical Technology Co., Ltd.), DSPC (AVT (Shanghai) Pharmaceutical Technology Co., Ltd.), cholesterol (AVT (Shanghai) Pharmaceutical Technology Co., Ltd.), and DMG-PEG2000 were dissolved in ethanol at a molar ratio of 49:10:39.5:1.5, and the mRNA was diluted in 50 mM citrate buffer (pH=4). The ethanol lipid solution was mixed with the Fluc-mRNA aqueous solution prepared from different cap structures at a volume ratio of 1:3 using a microfluidic device at a flow rate of 10 mL/min to prepare LNPs at a weight ratio of total lipid to mRNA of approximately 15:1. The resulting liposomes were diluted to 10-fold volume with PBS, and then ultrafiltered with a 300 KDa ultrafiltration tube to remove ethanol. The volume was then fixed to a certain volume with PBS. Finally, the LNPs were filtered through a 0.2 μm sterile filter to obtain an LNP preparation encapsulating Fluc-mRNA using YK-009/DSPC/cholesterol/DMG-PEG2000 (at a molar ratio of 49:10:39.5:1.5).
The particle size and polydispersity index (PDI) were determined by dynamic light scattering using a Malvern laser particle size analyzer. 10 μL of the liposome solution was taken, diluted to 1 mL with RNase-free deionized water, and added to a sample pool. Each sample was measured in triplicate. The measurement conditions were: a scattering angle of 90° and a temperature of 25° C. The encapsulation efficiency of LNPs was determined using the Quant-iT RiboGreen RNA Quantification Kit (Thermo Fisher Scientific, UK) according to the manufacturer's instructions.

A further series concerns the target T2, DCP2 enzyme (Schizosaccharomyces pombe, UniProt O13828).
T2 construct: purchased New England Biolabs
T2 sequence (O13828 1-243 limits assumed): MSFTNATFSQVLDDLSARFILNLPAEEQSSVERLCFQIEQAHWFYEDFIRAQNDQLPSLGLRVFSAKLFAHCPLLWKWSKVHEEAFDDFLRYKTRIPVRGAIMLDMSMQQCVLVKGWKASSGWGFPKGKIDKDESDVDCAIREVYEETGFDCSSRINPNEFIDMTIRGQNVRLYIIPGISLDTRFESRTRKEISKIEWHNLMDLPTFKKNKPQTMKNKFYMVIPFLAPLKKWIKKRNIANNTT
T2 sequence (Q9P805 1-127 partner): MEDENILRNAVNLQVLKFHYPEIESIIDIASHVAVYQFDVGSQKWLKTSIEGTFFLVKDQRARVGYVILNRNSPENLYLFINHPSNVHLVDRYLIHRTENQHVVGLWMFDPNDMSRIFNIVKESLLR
T2 sequence (Q10108 155-180 partner limits assumed): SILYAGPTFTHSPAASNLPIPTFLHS
Description: Decapping enzyme stability test. Format: biochemical. The conditions noted are these: 30 pmol RNA, 50 U mRNA decapping enzyme, 37° C., 45 minutes. On the procedure: 30 pmol of RNAs purified by polyacrylamide gel electrophoresis (PAGE) was subjected to an enzymatic reaction with 50 U of mRNA decapping enzyme (New England Biolabs) and 1×MDE buffer at 37° C. for 45 minutes. The enzymatic reactants were subjected to PAGE and stained with SYBR Green II (Lonza), followed by observation of the post-electrophoresis gel image on a Typhoon FLA 7000 (GE Healthcare) instrument. The electrophoresis band intensity ratio of RNA capping to RNA decapping was counted using ImageQuant (GE Healthcare) software, and the decapping rate of the decapping enzyme was calculated (as shown in Table 6).

Another series relates to BALB/C mice. Description: In vivo imaging of protein expressed by LNP-carrying Fluc-mRNA in mice. To be noted: female BALB/C mice. The method, then: The LNP preparation containing […] of Fluc-mRNAs transcribed using the cap analogs YK-CAP-001 to 006 in the present disclosure and the cap analogs N-7413, compound 14, and m6A in the prior art was intramuscularly injected into female BALB/C mice aged 4 to 6 weeks and weighing 17 to 19 g. At specific time points after administration (6 hours, 12 hours, 24 hours, 48 hours, 96 hours, and 168 hours), the mice were intraperitoneally injected with fluorescence imaging substrate. The mice were then allowed to move freely for 5 minutes, followed by detection of the average radiation intensity (corresponding to the amount of protein expression) of the protein expressed by LNP-carrying mRNA in the mice using an IVIS Spectrum small-animal in vivo imaging system.

The mark [4] stands for this setting: 6 h after intramuscular injection of LNP Fluc-mRNA.
Setting [5] is: 12 h after intramuscular injection of LNP Fluc-mRNA.
Setting [6] is: 24 h after intramuscular injection of LNP Fluc-mRNA.
[7] abbreviates: 48 h after intramuscular injection of LNP Fluc-mRNA.
Setting [8] is: 96 h after intramuscular injection of LNP Fluc-mRNA.
[9] abbreviates: 168 h after intramuscular injection of LNP Fluc-mRNA.

T1 sequence (P00573 whole entry): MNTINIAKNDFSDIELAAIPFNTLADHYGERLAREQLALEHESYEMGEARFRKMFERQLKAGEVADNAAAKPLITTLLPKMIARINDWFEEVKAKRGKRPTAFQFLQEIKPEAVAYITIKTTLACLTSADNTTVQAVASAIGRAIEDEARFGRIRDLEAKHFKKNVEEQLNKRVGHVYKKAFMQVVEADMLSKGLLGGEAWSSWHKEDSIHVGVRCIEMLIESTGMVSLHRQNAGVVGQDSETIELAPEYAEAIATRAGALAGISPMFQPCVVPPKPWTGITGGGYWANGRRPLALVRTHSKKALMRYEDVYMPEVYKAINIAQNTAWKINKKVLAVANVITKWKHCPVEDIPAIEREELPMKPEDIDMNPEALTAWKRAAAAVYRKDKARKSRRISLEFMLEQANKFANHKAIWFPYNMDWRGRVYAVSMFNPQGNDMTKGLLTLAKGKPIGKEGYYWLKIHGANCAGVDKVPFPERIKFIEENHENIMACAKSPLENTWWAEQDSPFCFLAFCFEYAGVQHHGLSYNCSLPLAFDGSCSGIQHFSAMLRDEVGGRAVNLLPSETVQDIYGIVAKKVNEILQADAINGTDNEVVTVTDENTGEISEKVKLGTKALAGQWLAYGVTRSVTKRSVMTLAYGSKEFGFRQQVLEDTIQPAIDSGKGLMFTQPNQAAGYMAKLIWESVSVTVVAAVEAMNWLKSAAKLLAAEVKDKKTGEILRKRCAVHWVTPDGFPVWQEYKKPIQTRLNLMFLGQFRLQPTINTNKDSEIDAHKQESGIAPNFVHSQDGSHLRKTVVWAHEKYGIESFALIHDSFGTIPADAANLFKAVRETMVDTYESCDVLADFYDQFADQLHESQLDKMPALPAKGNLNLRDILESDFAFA

Take `COC1C(OP(=O)([O-])OC[C@H]2O[C@@H](n3cnc4c(=O)[nH]c(N)nc43)C(O)C2O)[C@@H](COP(=O)(O)OP(=O)(O)OP(=O)(O)OC[C@]23O[C@@H]([n+]4cn(C)c5c(=O)[nH]c(N)nc54)C(O[C@H]2CC#N)C3O)O[C@H]1n1cnc2c(N)ncnc21` (some centres unmarked) [YK-CAP-002]: the “Yield per unit template” value at T7 RNA polymerase [1] turned out to be 103.1 µg. This compound returned a Capping rate at T7 RNA polymerase [2] of 70.2%. The compound further displayed a Particle size in series [3] of 86.31 nm. The compound also gave a PDI in series [3] of 0.058. The compound further came in with an EE in series [3] of 93.1%. For the same compound, the “Decapping rate (%) of DCP2 enzyme” value at DCP2 enzyme came to 24.6%. The Average radiation intensity with BALB/C mice (setting [4]) is reported as 1466925 p/s/cm^2/sr; in the series with BALB/C mice (setting [5]) it was 801300 p/s/cm^2/sr; in the series on BALB/C mice (setting [6]), 278665 p/s/cm^2/sr; with BALB/C mice (setting [7]), 320725 p/s/cm^2/sr; in the series with BALB/C mice (setting [8]), 20893 p/s/cm^2/sr; in the series on BALB/C mice (setting [9]), 9768 p/s/cm^2/sr.

`COC1C(OP(=O)([O-])OC[C@H]2O[C@@H](n3cnc4c(=O)[nH]c(N)nc43)C(O)C2O)[C@@H](COP(=O)(O)OP(=O)(O)OP(=O)(O)OC[C@H]2O[C@@H]([n+]3cn(C)c4c(=O)[nH]c(N)nc43)C(O)C2OC)O[C@H]1n1cnc2c(N)ncnc21` (some centres unmarked) [N-7413, reference compound] registered a Particle size in series [3] of 100.5 nm. In series [3], this compound registered a PDI of 0.041. This compound came in with an EE in series [3] of 95.4%. At DCP2 enzyme, the “Decapping rate (%) of DCP2 enzyme” value was 48.6%. Moreover, the Average radiation intensity in the series on BALB/C mice (setting [5]) came to 1806125 p/s/cm^2/sr; in the series on BALB/C mice (setting [6]), 906625 p/s/cm^2/sr; in the series with BALB/C mice (setting [7]) it was 710545 p/s/cm^2/sr; in the series with BALB/C mice (setting [8]), 68400 p/s/cm^2/sr; in the series on BALB/C mice (setting [9]), 18233 p/s/cm^2/sr.

For the compound `COC1C(OP(=O)([O-])OC[C@H]2O[C@@H](n3cnc4c(=O)[nH]c(N)nc43)C(O)C2O)[C@@H](COP(=O)(O)OP(=O)(O)OP(=O)(O)OC[C@]23O[C@@H]([n+]4cn(C)c5c(=O)[nH]c(N)nc54)C(O[C@H]2CCN(C)C)C3O)O[C@H]1n1cnc2c(N)ncnc21` (some centres unmarked) [YK-CAP-001], the “in vitro transcription yield of mRNA” value at T7 RNA polymerase [1] was determined as 89.3. The “Yield per unit template” value at T7 RNA polymerase [1] amounted to 89.3 µg. Moreover, the Capping rate on T7 RNA polymerase [2] was found to be 73.1%. In series [3], this compound came in with a Particle size of 86.13 nm. Moreover, the PDI in series [3] is on record as 0.044. The compound also came in with an EE in series [3] of 95.7%. Further, the “Decapping rate (%) of DCP2 enzyme” value on DCP2 enzyme is recorded as 26.3%. For the same compound, the Average radiation intensity with BALB/C mice (setting [4]) was 1728300 p/s/cm^2/sr; with BALB/C mice (setting [5]), 985800 p/s/cm^2/sr; in the series on BALB/C mice (setting [6]) it was 612430 p/s/cm^2/sr; with BALB/C mice (setting [7]), 578750 p/s/cm^2/sr; in the series on BALB/C mice (setting [8]), 43485 p/s/cm^2/sr; in the series on BALB/C mice (setting [9]), 10467 p/s/cm^2/sr.

In series [3], `COCC1C(O)[C@H]([n+]2cn(C)c3c(=O)[nH]c(N)nc32)O[C@@H]1COP(=O)(O)OP(=O)(O)OP(=O)(O)OC[C@H]1O[C@@H](n2cnc3c(N)ncnc32)C(OC)C1OP(=O)([O-])OC[C@H]1O[C@@H](n2cnc3c(=O)[nH]c(N)nc32)C(O)C1O` (some centres unmarked) [HN3002, reference compound] yielded a Particle size of 91.03 nm, a PDI of 0.032 and an EE of 94.8%. The “Decapping rate (%) of DCP2 enzyme” value on DCP2 enzyme was 23.2%.

With `CNc1ncnc2c1ncn2[C@@H]1O[C@H](COP(=O)(O)OP(=O)(O)OP(=O)(O)OC[C@H]2O[C@@H]([n+]3cn(C)c4c(=O)[nH]c(N)nc43)C(O)C2O)C(OP(=O)([O-])OC[C@H]2O[C@@H](n3cnc4c(=O)[nH]c(N)nc43)C(O)C2O)C1OC` (some centres unmarked) [m6A, reference compound], the Particle size in series [3] was determined as 89.99 nm. In series [3], this compound registered a PDI of 0.047. The compound also displayed an EE in series [3] of 94.2%. The “Decapping rate (%) of DCP2 enzyme” value on DCP2 enzyme was found to be 27.5%. Besides, the Average radiation intensity in the series on BALB/C mice (setting [5]) was 702940 p/s/cm^2/sr; with BALB/C mice (setting [6]) it was 201585 p/s/cm^2/sr; with BALB/C mice (setting [7]), 238500 p/s/cm^2/sr; in the series on BALB/C mice (setting [8]) it was 33586 p/s/cm^2/sr; with BALB/C mice (setting [9]) it was 12000 p/s/cm^2/sr.
